The values that follow come from ChEMBL document CHEMBL4411299, “A class of novel tubulin polymerization inhibitors exert effective anti-tumor activity via mitotic catastrophe” (Eur J Med Chem, 2019).

Holding throughout (type): functional
Assay [1] relates to MDA-MB-231. The experiment in a line: Antiproliferative activity against human MDA-MB-231 cells after 48 hrs by MTT assay. The settings on record: MDA-MB-231, 48 h. A general note: Formazan colour is commonly taken as a measure of viable cells.
For assay [2], the system named is A2780. Briefly: Antiproliferative activity against human A2780 cells after 48 hrs by MTT assay. The conditions noted are these: A2780, 48 h.
In assay [3] the test system is A549. The experiment in a line: Antiproliferative activity against human A549 cells after 48 hrs by MTT assay. The settings on record: A549, 48 h.
The test system of assay [4] is HT-29. Briefly: Antiproliferative activity against human HT-29 cells after 48 hrs by MTT assay. The conditions noted are these: HT-29, 48 h.
Assay [5] relates to HepG2. Briefly: Antiproliferative activity against human HepG2 cells after 48 hrs by MTT assay. The conditions noted are these: HepG2, 48 h.
The test system of assay [6] is HeLa. Briefly: Antiproliferative activity against human HeLa cells after 48 hrs by MTT assay.

In general, GI50 refers to the concentration giving 50% growth inhibition. High values mean less potent growth inhibition, low ones more potent growth inhibition.

Molecules are shown by their SMILES. A value given as a limit tells only on which side of the number the result lay.

`COC(=O)N1N=C(c2ccc(OC)cc2)CC1c1cc(OC)c(OC)c(OC)c1` (centres undefined): the GI50 in assay [1] is 1.99 µM; in assay [2], 5 µM; in assay [3] it was 3.4 µM; in assay [4] it was 2.55 µM; in assay [5], 1.71 µM; in assay [6] it was 2.59 µM.

With `CCOC(=O)N1N=C(c2ccc(OC)cc2)CC1c1cc(OC)c(OC)c(OC)c1` (centres undefined), the GI50 in assay [1] is 2.66 µM; in assay [2], 9.27 µM; in assay [3], 4.69 µM; in assay [4], 6.73 µM; in assay [5], 9.4 µM; in assay [6], 8.71 µM.

For the compound `CCCOC(=O)N1N=C(c2ccccc2)CC1c1cc(OC)c(OC)c(OC)c1` (centres undefined), the GI50 in assay [1] was 14.4 µM; in assay [2], 10.8 µM; in assay [3] it was greater than 10 µM; in assay [4], greater than 10 µM; in assay [5], greater than 10 µM; in assay [6], greater than 10 µM.

Take `COC(=O)N1N=C(c2ccc(O)cc2)CC1c1cc(OC)c(OC)c(OC)c1` (centres undefined): the GI50 came to 7.15 µM in assay [1]; 2.52 µM in assay [2]; 8.57 µM in assay [3]; 6.77 µM in assay [4]; 7.82 µM in assay [5]; 1.14 µM in assay [6].

For the compound `CCOC(=O)N1N=C(c2cccc(OC)c2)CC1c1cc(OC)c(OC)c(OC)c1` (centres undefined), the GI50 in assay [1] came out at 9.1 µM; in assay [2] it was 7.3 µM; in assay [3], 5.92 µM; in assay [4], 7.86 µM; in assay [5], 5.82 µM; in assay [6], 4.11 µM.

For the compound `CCCOC(=O)N1N=C(c2cccc(OC)c2)CC1c1cc(OC)c(OC)c(OC)c1` (centres undefined), the concentration for 50% growth inhibition (GI50) in assay [1] is 12.5 µM; in assay [2] it was greater than 10 µM; in assay [3], greater than 10 µM; in assay [4], greater than 10 µM; in assay [5], greater than 10 µM; in assay [6] it was greater than 10 µM.

As for `COC(=O)N1N=C(c2ccccc2)CC1c1ccc(OC)c(OC)c1` (centres undefined), the GI50 in assay [1] was 8.94 µM; in assay [2], 29.9 µM; in assay [3], 7.32 µM; in assay [4] it was 10.7 µM; in assay [5] it was 9.15 µM; in assay [6], 5.48 µM.

As to `COc1ccc(C2=NN(C(=O)OCc3ccccc3)C(c3cc(OC)c(OC)c(OC)c3)C2)cc1` (centres undefined), the 50% growth inhibitory concentration (GI50) in assay [1], in assay [2], in assay [3], in assay [4], in assay [5] and in assay [6] was greater than 10 µM throughout.

For `COC(=O)N1N=C(c2ccccc2)CC1c1ccccc1` (centres undefined), the 50% growth inhibitory concentration (GI50) in assay [1], in assay [2], in assay [3], in assay [4], in assay [5] and in assay [6] was greater than 10 µM each time.

For `CCCOC(=O)N1N=C(c2cccc(O)c2)CC1c1cc(OC)c(OC)c(OC)c1` (centres undefined), the 50% growth inhibitory concentration (GI50) is 10 µM in assay [1]; 11.1 µM in assay [2]; greater than 10 µM in assay [3]; 15.2 µM in assay [4]; greater than 10 µM in assay [5]; greater than 10 µM in assay [6].

Regarding `COC(=O)N1N=C(c2cc(OC)c(OC)c(OC)c2)CC1c1cc(OC)c(OC)c(OC)c1` (centres undefined), the 50% growth inhibitory concentration (GI50) was 11.1 µM in assay [1]; 14 µM in assay [2]; 12.6 µM in assay [3]; 7.85 µM in assay [4]; 9.72 µM in assay [5]; 5.68 µM in assay [6].

Regarding `COC(=O)N1N=C(c2ccccc2)CC1c1cc(OC)c(OC)c(OC)c1` (centres undefined), the GI50 in assay [1] was found to be 1.08 µM; in assay [2], 2.77 µM; in assay [3] it was 2.88 µM; in assay [4] it was 6.26 µM; in assay [5], 3.95 µM; in assay [6], 2.18 µM.

As to `COC(=O)N1N=C(c2ccccc2)CC1c1ccc(OC)c(O)c1` (centres undefined), the concentration for 50% growth inhibition (GI50) was 14.5 µM in assay [1]; 4.96 µM in assay [2]; 8.93 µM in assay [3]; 3.5 µM in assay [4]; 9.81 µM in assay [5]; 7.52 µM in assay [6].

Regarding `COC(=O)N1N=C(c2ccccc2)CC1c1c(OC)cc(OC)cc1OC` (centres undefined), the GI50 in assay [1] was 10.6 µM; in assay [2], greater than 10 µM; in assay [3] it was 5.88 µM; in assay [4], greater than 10 µM; in assay [5], 7.49 µM; in assay [6] it was 3.49 µM.

In the case of `CCCOC(=O)N1N=C(c2ccc(OC)cc2)CC1c1cc(OC)c(OC)c(OC)c1` (centres undefined), the 50% growth inhibitory concentration (GI50) is 20.4 µM in assay [1]; 11.7 µM in assay [2]; greater than 10 µM in assay [3]; 12.7 µM in assay [4]; greater than 10 µM in assay [5]; greater than 10 µM in assay [6].

Consider `COc1cccc(C2=NN(C(=O)OCc3ccccc3)C(c3cc(OC)c(OC)c(OC)c3)C2)c1` (centres undefined), for which the GI50 in assay [1], in assay [2], in assay [3], in assay [4], in assay [5] and in assay [6] was greater than 10 µM each time.

For `COC(=O)N1N=C(c2ccc(OC)c(OC)c2)CC1c1cc(OC)c(OC)c(OC)c1` (centres undefined), the 50% growth inhibitory concentration (GI50) in assay [1] amounted to 9.9 µM; in assay [2], 11.4 µM; in assay [3], 3.93 µM; in assay [4], 9.2 µM; in assay [5], 4.21 µM; in assay [6], 3.39 µM.

For `COC(=O)N1N=C(c2cccc(O)c2)CC1c1cc(OC)c(OC)c(OC)c1` (centres undefined), the 50% growth inhibitory concentration (GI50) in assay [1] was determined as 0.74 µM; in assay [2] it was 0.81 µM; in assay [3], 3.17 µM; in assay [4], 1.35 µM; in assay [5] it was 0.65 µM; in assay [6], 1.97 µM.

Turning to `COc1cc(C2CC(c3ccccc3)=NN2C(=O)OCc2ccccc2)cc(OC)c1OC` (centres undefined), the GI50 in assay [1], in assay [2], in assay [3], in assay [4], in assay [5] and in assay [6] was greater than 10 µM throughout.

For the compound `COC(=O)N1N=C(c2ccccc2)CC1c1ccc(OC)cc1` (centres undefined), the GI50 in assay [1] is greater than 10 µM; in assay [2], greater than 10 µM; in assay [3], 15.3 µM; in assay [4], greater than 10 µM; in assay [5], 12 µM; in assay [6], 12.7 µM.

For the compound `COC(=O)N1N=C(c2ccccc2)CC1c1cc(OC)c(OC)cc1OC` (centres undefined), the GI50 in assay [1] was greater than 10 µM; in assay [2] it was greater than 10 µM; in assay [3] it was 5.32 µM; in assay [4] it was 14.9 µM; in assay [5] it was 6.53 µM; in assay [6], 2.47 µM.

As to `COC(=O)N1N=C(c2cccc(OC)c2)CC1c1cc(OC)c(OC)c(OC)c1` (centres undefined), the concentration for 50% growth inhibition (GI50) came out at 0.35 µM in assay [1]; 2.78 µM in assay [2]; 2.59 µM in assay [3]; 1.3 µM in assay [4]; 1.87 µM in assay [5]; 1.53 µM in assay [6].

Regarding `CCOC(=O)N1N=C(c2cccc(O)c2)CC1c1cc(OC)c(OC)c(OC)c1` (centres undefined), the 50% growth inhibitory concentration (GI50) in assay [1] was determined as 4.71 µM; in assay [2] it was 9.75 µM; in assay [3], 5.12 µM; in assay [4] it was 11.6 µM; in assay [5], 1.79 µM; in assay [6], 3.28 µM.

Regarding `COc1cc(C2CC(c3cccc(O)c3)=NN2C(=O)OCc2ccccc2)cc(OC)c1OC` (centres undefined), the concentration for 50% growth inhibition (GI50) in assay [1], in assay [2], in assay [3], in assay [4], in assay [5] and in assay [6] was greater than 10 µM throughout.
